“Also recorded” adds a separate entry of the source. Like-named read-outs stand apart in the source and are kept apart here. Marks after values point to notes of the source that are not given here.
Assays:
CD-1 mice [1] = assay: Radiant heat tail flick analgesia assay; assay type: in vivo, mouse; conditions: for analgesic activity (in words): tail flick, doses as high as 10 mg/kg
mice [2] = conditions: cited from earlier work
CD-1 mice [3] = conditions: cited from earlier work
mice [4] = conditions: cited from earlier work; remark: listed apart in the source
knockout mouse = conditions: cited from earlier work
mice [5] = conditions: cited from earlier work; remark: listed apart in the source
[6] = cited from earlier work
mice [7] = assay: Respiratory depression assay; assay type: in vivo, mouse; conditions: 15 2.5 mg/kg s.c., morphine 20 mg/kg s.c., about 4-fold analgesic ED50; n=5
MOR-1 (mu) = MOR-1 (mu) (Mus musculus, UniProt P42866); assay: Competition binding against 125I-BNtxA in CHO cells stably expressing MOR-1
KOR-1 (kappa) = KOR-1 (kappa) (Mus musculus, UniProt P33534); assay: Competition binding against 125I-BNtxA in CHO cells stably expressing KOR-1
6TM/E11 sites = 6TM/E11 sites (Mus musculus, UniProt P42866); assay type: binding; conditions: compared to 15
DOR-1 (delta) = DOR-1 (delta) (Mus musculus, UniProt P32300); assay: Competition binding against 125I-BNtxA in CHO cells stably expressing DOR-1; conditions: for fold lower affinity for delta receptors: compared to 15

Compound: 17-Allyl-3,14β-dihydroxy-4,5α-epoxy-6β-[2-adamantylamido]morphinan [Compound 37]
- Tail flick analgesia ED50 mg/kg (95%CL) (CD-1 mice [1]; s.c., CD-1 mice, radiant heat tail flick, (95% confidence limits)): >10 mg/kg

Compound: O=C(N[C@@H]1CC[C@@]2(O)[C@H]3Cc4ccc(O)c5c4[C@@]2(CCN3CC2CC2)[C@H]1O5)c1cccc(I)c1 [Compound 1, 3-Iodobenzoylnaltrexamide]
- physical dependence (in words) (mice [2]): no observable
- Tail flick analgesia ED50 mg/kg (95%CL) (CD-1 mice [3]; (95% confidence limits), values from the literature ref 26): 0.39 (0.15, 0.58) ^a mg/kg
- cross tolerance to morphine (in words) (CD-1 mice [3]): no observable
- analgesic potency fold greater than morphine (CD-1 mice [3]; compared to morphine ref 26): 10 fold
- respiratory depression (in words) (mice [4]): no observable respiratory depression
- analgesic activity in E11 knockout mouse (in words) (knockout mouse; E11 knockout mouse, disruption of exon 11-associated variants ref 26): without activity
- analgesic activity in MOR-1/DOR-1/KOR-1 triple knockout mouse (in words) (knockout mouse; triple knockout mouse lacking traditional mu, delta and kappa1 receptors ref 26): retained full analgesic activity
- inhibition of gastrointestinal transit (in words) (mice [5]): limited inhibition of gastrointestinal transit
- rewarding behavior in the conditioned place preference assay (in words) [6]: no observable

Compound: CN1CC[C@]23c4c5ccc(O)c4O[C@H]2[C@H](NC(=O)c2cccc(I)c2)CC[C@@]3(O)[C@H]1C5 [Compound 14]
- analgesic activity (in words) (CD-1 mice [1]; s.c.): No analgesia could be detected

Compound: C=CCN1CC[C@]23c4c5ccc(O)c4O[C@H]2[C@H](NC(=O)c2cccc(I)c2)CC[C@@]3(O)[C@H]1C5 [Compound 15, 17-Allyl-3,14β-dihydroxy-4,5α-epoxy-6β-[(3′-iodo)benzamido]morphinan]
- effect on respiratory rate (in words) (mice [7]): did not depress respiratory rate; also recorded: no respiratory depression
- fold lower affinity for mu receptors (MOR-1 (mu); compared to 1): about 2 fold
- fold lower affinity for kappa receptors (KOR-1 (kappa); compared to 1): about 2 fold
- fold more potent an analgesic than morphine (CD-1 mice [1]; compared to morphine): 10 fold

Compound: C=CCN1CC[C@]23c4c5ccc(O)c4O[C@H]2[C@@H](NC(=O)c2cccc(I)c2)CC[C@@]3(O)[C@H]1C5 [Compound 16, 17-Allyl-3,14β-dihydroxy-4,5α-epoxy-6α-[(3′-iodo)benzamido]morphinan]
- fold lower affinity for mu receptors (MOR-1 (mu); compared to 15): 23 fold
- fold lower binding affinity for the 6TM/E11 site (6TM/E11 sites): 33 fold
- fold lower affinity for kappa receptors (KOR-1 (kappa); compared to 15): 150 fold
- fold lower affinity for delta receptors (DOR-1 (delta)): 3 fold
- fold higher ED50 / lower analgesic activity (CD-1 mice [1]; compared to 15): 10 fold

Compound: C=CCN1CC[C@]23c4c5ccc(O)c4O[C@H]2[C@H](NC(=O)c2ccccc2I)CC[C@@]3(O)[C@H]1C5 [Compound 17, 17-Allyl-3,14β-dihydroxy-4,5α-epoxy-6β-[(2′-iodo)benzamido]morphinan]
- fold lower affinity for mu receptors (MOR-1 (mu); compared to 15): approximately 10 fold
- fold lower binding affinity for the 6TM/E11 site (6TM/E11 sites): 100 fold
- fold lower affinity for kappa receptors (KOR-1 (kappa); compared to 15): approximately 10 fold
- fold lower affinity for delta receptors (DOR-1 (delta)): approximately 10 fold
- analgesic activity (in words) (CD-1 mice [1]; s.c.): eliminated its analgesic activity

Compound: C=CCN1CC[C@]23c4c5ccc(O)c4O[C@H]2[C@H](NC(=O)c2ccccc2)CC[C@@]3(O)[C@H]1C5 [Compound 22, 17-Allyl-3,14β-dihydroxy-4,5α-epoxy-6β-(benzamido)morphinan]
- fold lower affinity for mu receptors (MOR-1 (mu); compared to 15): about 20 fold
- fold lower binding affinity for the 6TM/E11 site (6TM/E11 sites): over 20 fold
- fold lower affinity for kappa receptors (KOR-1 (kappa); compared to 15): ~180 fold
- fold lower affinity for delta receptors (DOR-1 (delta)): ~25 fold

Compound: C=CCN1CC[C@]23c4c5ccc(O)c4O[C@H]2[C@H](NC(=O)c2cccc(C(F)(F)F)c2)CC[C@@]3(O)[C@H]1C5 [Compound 24, 17-Allyl-3,14β-dihydroxy-4,5α-epoxy-6β-[(3′-trifluoromethyl)benzamido]morphinan]
- analgesic activity (in words) (CD-1 mice [1]; s.c.): potent analgesic actions

Compound: C=CCN1CC[C@]23c4c5ccc(O)c4O[C@H]2[C@H](NC(=O)c2cccc(OC)c2)CC[C@@]3(O)[C@H]1C5 [Compound 25, 17-Allyl-3,14β-dihydroxy-4,5α-epoxy-6β-[(3′-methoxy)benzamido]morphinan]
- fold mu selectivity over delta (MOR-1 (mu); mu vs delta): 100 fold
- fold lower binding affinity for the 6TM/E11 site (6TM/E11 sites): 10 fold
- fold greater analgesic potency (CD-1 mice [1]; compared to 15): over 3 fold
- analgesic activity (in words) (CD-1 mice [1]; s.c.): potent analgesic actions

Compound: C=CCN1CC[C@]23c4c5ccc(O)c4O[C@H]2[C@H](NC(=O)c2ccc(-c4ccccc4)cc2)CC[C@@]3(O)[C@H]1C5 [Compound 32, 17-Allyl-3,14β-dihydroxy-4,5α-epoxy-6β-[(4′-phenyl)benzamido]morphinan]
- analgesic activity (in words) (CD-1 mice [1]; s.c.): not analgesic

Compound: C=CCN1CC[C@]23c4c5ccc(O)c4O[C@H]2[C@H](NC(=O)CCCCC)CC[C@@]3(O)[C@H]1C5 [Compound 34, 17-Allyl-3,14β-dihydroxy-4,5α-epoxy-6β-(hexylamido)morphinan]
- Ki (KOR-1 (kappa)): 9.15 ± 0.94 nM

Compound: O=C(NC1CCC2(O)C3Cc4ccc(O)c5c4C2(CCN3CC2CC2)C1O5)c1cccc(I)c1 (stereo not shown) [Compound 125IBNtxA, reference compound]
- Kd (MOR-1 (mu); read-out: 125IBNtxA KD MOR-1, radioligand KD): 0.11 nM
- Kd (KOR-1 (kappa); read-out: 125IBNtxA KD KOR-1, radioligand KD): 0.03 nM
- Kd (DOR-1 (delta); read-out: 125IBNtxA KD DOR-1, radioligand KD): 0.24 nM

Compound: CN1CC[C@]23c4c5ccc(O)c4O[C@H]2[C@@H](O)C=C[C@H]3[C@H]1C5 [morphine, reference compound]
- effect on respiratory rate (in words) (mice [7]): decreases respiratory depression

From paper PMC3412067 (Journal of medicinal chemistry, 2012)
